Measured values from patent publication US11912707B2 (priority 2016, dated 2024).
Like-named read-outs stand apart in the source and are kept apart here.

Columns and labels:
[1] = target: T1, human delta-opioid receptor (DOR) (Homo sapiens, UniProt P41143); test: BRET assay measuring G protein activation, antagonist competition vs DPDPE, human DOR; type: cell-based; settings: for Extent of antagonism at Human DOR: competing agonist DPDPE (50 nM)
T1 construct: expressed in transfected cells; host or cells: HEK-293T
Method: (§1) Human MOR, KOR, or DOR cDNA was transfected alongside GαoB with RLuc8 inserted at position 91 (GαoB-RLuc8), Gβ1 (β1), and Gγ2 fused to the full-length mVenus at its N terminus (mVenus-γ2) (2.5 μg MOR/DOR/KOR, 0.125 μg GαoB-RLuc8, 6.25 μg β1; 6.25 μg mVenus-γ2) into HEK-293T cells (5×10^6 cells/plate) in 10-cm dishes using PEI (Polysciences Inc.; Warrington, PA) in a 1:1 ratio diluted in Opti-MEM (Life Technologies Corp.; Grand Island, NY) to assay for G protein activation as described previously.^2,3 Cells were maintained in Dulbecco's Modified Eagle Medium (high glucose #11965; Life Technologies) supplemented with 10% FBS (Premium Select, Atlanta Biologicals; Atlanta, GA) and 100 U/mL penicillin and 100 μg/mL streptomycin (#15140, Life Technologies). After 24 hours the media was changed, and the experiment was performed 24 hours later (48 hours after transfection).
(§2) Transfected cells were dissociated and resuspended in phosphate-buffered saline (PBS). Approximately 200,000 cells/well were added to a black-framed, white well 96-well plate (#60050; Perkin Elmer; Waltham, MA). The microplate was centrifuged and the cells were resuspended in phosphate-buffered saline (PBS). For agonist experiments, after 5 minutes, 5 μM of the luciferase substrate coelenterazine H was added to each well. After 5 minutes, ligands were added and the BRET signal was measured at 5 minutes on a PHERAstar FS plate reader. For antagonist competition experiments, cells were preincubated with the antagonist at varying concentrations for 30 minutes. Coelenterazine H (5 μM) was then added to each well for 5 minutes. […] The BRET signal was quantified by calculating the ratio of the light emitted by the energy acceptor, mVenus (510-540 nm), over the light emitted by the energy donor, RLuc8 (485 nm). This drug-induced BRET signal was normalized using the Emax of [D-Ala2, N-Me-Phe4, Gly5-ol]-enkephalin (DAMGO), U-50,488, or [D-Pen(2,5)]enkephalin (DPDPE) as the maximal response at MOR, KOR, and DOR respectively. Dose response curves were fit using a three-parameter logistic equation in GraphPad Prism 6.

[2] = target: T2, human mu-opioid receptor (MOR) (Homo sapiens, UniProt P35372); settings: Kruegel, A. C. et al. 2016; cited from earlier work
T2 construct: expressed in transfected cells; host or cells: HEK-293T

[3] = Stability in human liver microsomes; type: in vitro ADME; settings: pH 7.4, 2 μM test compound, 0.42 mg/mL microsomal protein, 37° C., NADPH, read-out: t1/2 in human liver microsomes
Method: Microsomal incubations were carried out in 96-well plates in 5 aliquots of 40 μL each (one for each time point). Liver microsomal incubation medium contained PBS (100 mM, pH 7.4), MgCl2 (3.3 mM), NADPH (3 mM), glucose-6 phosphate (5.3 mM), and glucose-6-phosphate dehydrogenase (0.67 units/ml) with 0.42 mg of liver microsomal protein per mL. Control incubations were performed replacing the NADPH-cofactor system with PBS. Test compound (2 μM, final solvent concentration 1.6%) was incubated with microsomes at 37° C., shaking at 100 rpm. Incubations were performed in duplicates. Five time points over 40 minutes were analyzed. The reactions were stopped by adding 12 volumes of 90% acetonitrile-water to incubation aliquots, followed by protein sedimentation by centrifuging at 5500 rpm for 3 minutes. Supernatants were analyzed for remaining test compound using an HPLC system coupled with a tandem mass spectrometer.

[4] = tested on: MOR; settings: Takayama 2002; Matsumoto 2004; cited from earlier work
[5] = target: MOR (Homo sapiens, UniProt P35372); settings: Kruegel, A. C. et al. 2016; cited from earlier work
[6] = target: T2, human mu-opioid receptor (MOR); test: BRET assay measuring G protein activation, agonist mode, human MOR; type: cell-based
Method: as §1, §2

[7] = target: T3, human kappa-opioid receptor (KOR) (Homo sapiens, UniProt P41145); settings: Kruegel, A. C. et al. 2016; cited from earlier work
T3 construct: expressed in transfected cells; host or cells: HEK-293T

[8] = target: T3, human kappa-opioid receptor (KOR); test: BRET assay measuring G protein activation, antagonist competition vs U-50,488, human KOR; type: cell-based; settings: for Inhibition of the agonist activity of U-50,488 at human KOR: concentration of agonist = 320 nM, FIG. 1
Method: as §1, §2

[9] = read-out: Antagonist IC50, Human DOR
[10] = inhibition of reference agonist U-50,488 at 5x its EC50 (320 nM), read-out: Antagonist IC50, Human KOR

| SMILES | IC50 [1] | Type of activity at MOR [2] | half-life at 2 μM [3] | beta-arrestin recruitment at MOR [5] | Emax ([6]; normalized to Emax of DAMGO) | Type of activity at KOR [7] | IC50 [8] | Inhibition of the agonist activity of U-50,488 at human KOR [8] | also measured |
| --- | --- | --- | --- | --- | --- | --- | --- | --- | --- |
| CC[C@@H]1CN2CC[C@@]3(O)C(=Nc4cccc(OC)c43)[C@@H]2C[C@@H]1/C(=C\OC)C(=O)OC [7-hydroxymitragynine, 7-Hydroxymitragynine] | 15.6 µM | partial MOR agonists | 4.38 h | failing to recruit beta-arrestin | 60% | competitive kappa-opioid receptor (KOR) antagonists | 7.9 µM | fully inhibit | binding affinities for the MOR [4]: nanomolar; Ki [8]: 0.49 µM |
| CC[C@@H]1CN2CC[C@@]3(O)C(=Nc4cccc(OC)c43)[C@@H]2C[C@@H]1/C(=C/OC)C(=O)OC [(Z)-7-hydroxymitragynine, methyl (Z)-2-((2S,3S,7aS,12bS)-3-ethyl-7a-hydroxy-8-methoxy-1,2,3,4,6,7,7a,12b-octahydroindolo[2,3-a]quinolizin-2-yl)-3-methoxyacrylate] | > 50 µM |  |  |  | 64% |  | > 50 µM |  |  |
| CC[C@@H]1CN2CCc3c([nH]c4cccc(OC)c34)[C@@H]2C[C@@H]1/C(=C/OC)C(=O)OC [(Z)-mitragynine, methyl (Z)-2-((2S,3S,12bS)-3-ethyl-8-methoxy-1,2,3,4,6,7,12,12b-octahydroindolo[2,3-a]quinolizin-2-yl)-3-methoxyacrylate] |  |  |  |  |  |  |  |  | Extent of antagonism at Human DOR [1]: partial; IC50 [1, 9]: > 100 µM; IC50 [8, 10]: 42 µM |
| [2H]C([2H])([2H])O/C=C(/C(=O)OC([2H])([2H])[2H])[C@H]1C[C@H]2c3[nH]c4cccc(OC([2H])([2H])[2H])c4c3CCN2C[C@H]1CC [Compound 18, Methyl-d3 (E)-2-((2S,3S,12bS)-3-ethyl-8-(methoxy-d3)-1,2,3,4,6,7,12,12b-octahydroindolo[2,3-a]quinolizin-2-yl)-3-(methoxy-d3)acrylate] |  |  | 0.585 h |  |  |  |  |  |  |
| [2H]CO/C=C(/C(=O)OC([2H])([2H])[2H])[C@H]1C[C@H]2C3=Nc4cccc(OC([2H])([2H])[2H])c4[C@@]3(O)CCN2C[C@H]1CC [Compound 19, Methyl-d3 (E)-2-((2S,3S,7aS,12bS)-3-ethyl-7a-hydroxy-8-(methoxy-d3)-1,2,3,4,6,7,7a,12b-octahydroindolo[2,3-a]quinolizin-2-yl)-3-(methoxy-d)acrylate] |  |  | 6.57 h |  |  |  |  |  |  |
| CC[C@@H]1CN2CC[C@]3(Nc4cccc(OC)c4C3=O)[C@@H]2C[C@@H]1/C(=C\OC)C(=O)OC [mitragynine pseudoindoxyl, methyl (E)-2-((2S,6′S,7′S,8a′S)-6′-ethyl-4-methoxy-3-oxo-2′,3′,6′,7′,8′,8a′-hexahydro-5′H-spiro[indoline-2,1′-indolizin]-7′-yl)-3-methoxyacrylate] | 0.609 µM | partial MOR agonists |  | failing to recruit beta-arrestin | 52% | competitive kappa-opioid receptor (KOR) antagonists | 4.8 µM | fully inhibit | EC50 [6]: 0.0145 µM |
| CC[C@@H]1CN2CCc3c([nH]c4cccc(OC)c34)[C@@H]2C[C@@H]1/C(=C\OC)C(=O)OC [mitragynine, Mitragynine] |  | partial MOR agonists | 0.447 h | failing to recruit beta-arrestin |  | competitive kappa-opioid receptor (KOR) antagonists |  | fully inhibit | Extent of antagonism at Human DOR [1]: partial; IC50 [1, 9]: > 50 µM; binding affinities for the MOR [4]: nanomolar; Emax, Human MOR ([6]; normalized to Emax of DAMGO): 34%; Ki ([8]; Schild analysis, read-out: Schild pA2 (an estimate of Ki), Human KOR (converted)): 1.4 µM; IC50 [8, 10]: 8.5 µM |
